Reference: PubChem BioAssay AID330 (DTP/NCI, 2004)
Values joined by “and” are separate entries in the source; they are usually repeats but may differ in a detail not shown here. Identical values can stand only once. Toxic doses and inconclusive results are not listed. How the source made its calls: active means survival T/C of 150% or more; inactive means T/C below 125% in these data.

Test system: P388 leukemia ip, CD2F1 mice, survival T/C
Assay: NCI In Vivo Anticancer Drug Screen. Data for tumor model P388 Leukemia (intraperitoneal) in CD2F1 (CDF1) mice
Details: endpoint: median survival time, higher = longer survival
In short: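 Mice carrying the transplanted tumor received test compound or vehicle. Survival was recorded in each group, and the value is the treated-group measurement divided by that of the vehicle-treated control group.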

[1] = dose: 50.0 mg/kg/injection, schedule: Q01DX005 (ip), vehicle: Klucel (hydroxypropylcellulose) (HPC)
[2] = dose: 50.0 mg/kg/injection, schedule: Q01DX009 (ip), vehicle: Klucel (hydroxypropylcellulose) (HPC)
[3] = dose: 100.0 mg/kg/injection, schedule: Q01DX009 (ip), vehicle: Klucel (hydroxypropylcellulose) (HPC)
[4] = dose: 200.0 mg/kg/injection, schedule: Q01DX009 (ip), vehicle: Klucel (hydroxypropylcellulose) (HPC)
[5] = dose: 100.0 mg/kg/injection, schedule: Q01DX005 (ip), vehicle: Klucel (hydroxypropylcellulose) (HPC)
[6] = dose: 200.0 mg/kg/injection, schedule: Q01DX005 (ip), vehicle: Klucel (hydroxypropylcellulose) (HPC)

Measured: T/C

CCCCCC(C)(O)C1=NCCN1 (stereo not drawn)
inactive: dose: 12.5 mg/kg/injection, schedule: Q01DX005 (ip), vehicle: Klucel (hydroxypropylcellulose) (HPC) 97 % of control | dose: 25.0 mg/kg/injection, schedule: Q01DX005 (ip), vehicle: Klucel (hydroxypropylcellulose) (HPC) 95 % of control | [1] 100 % of control and 93 % of control

CCOC(=O)c1ccc(NCc2cccc([N+](=O)[O-])c2)cc1
inactive: dose: 100.0 mg/kg/injection, schedule: Q04DX003 (ip), vehicle: saline 109 % of control | dose: 200.0 mg/kg/injection, schedule: Q04DX003 (ip), vehicle: saline 101 % of control | dose: 400.0 mg/kg/injection, schedule: Q04DX003 (ip), vehicle: saline 101 % of control

O=[N+]([O-])c1cc2no[n+]([O-])c2cc1N1CCCCC1
inactive: dose: 3.75 mg/kg/injection, schedule: Q01DX009 (ip), vehicle: saline 97 % of control | dose: 3.75 mg/kg/injection, schedule: Q01DX009 (ip), vehicle: suspension in saline 94 % of control | dose: 7.5 mg/kg/injection, schedule: Q01DX009 (ip), vehicle: saline 114 % of control | dose: 7.5 mg/kg/injection, schedule: Q01DX009 (ip), vehicle: suspension in saline 103 % of control | dose: 15.0 mg/kg/injection, schedule: Q01DX009 (ip), vehicle: saline 101 % of control | dose: 15.0 mg/kg/injection, schedule: Q01DX009 (ip), vehicle: suspension in saline 103 % of control | dose: 30.0 mg/kg/injection, schedule: Q01DX009 (ip), vehicle: saline 108 % of control | dose: 30.0 mg/kg/injection, schedule: Q01DX009 (ip), vehicle: suspension in saline 122 % of control

O=C(O)CCC(=O)NNc1nc2ccccc2s1
inactive: dose: 60.0 mg/kg/injection, schedule: Q01DX005 (ip), vehicle: Klucel (hydroxypropylcellulose) (HPC) 102 % of control | dose: 120.0 mg/kg/injection, schedule: Q01DX005 (ip), vehicle: Klucel (hydroxypropylcellulose) (HPC) 104 % of control | dose: 240.0 mg/kg/injection, schedule: Q01DX005 (ip), vehicle: Klucel (hydroxypropylcellulose) (HPC) 97 % of control

NC(=O)Cc1noc2ccccc12
inactive: dose: 400.0 mg/kg/injection, schedule: Q01DX009 (ip), vehicle: saline with Tween-80 106 % of control and 88 % of control

Cc1nn(C(C)C(=O)N(C)C)c(Br)c1Br (stereo not drawn)
inactive: [2] 99 % of control | [3] 108 % of control | [4] 111 % of control

Cc1c(C)n(C)c(=S)n(C)c1=S
inactive: [1] 97 % of control | [5] 99 % of control | [6] 97 % of control

CCCn1c(=O)n(CC)c(=O)c2[nH]c(Cl)nc21
inactive: dose: 16.0 mg/kg/injection, schedule: Q01DX009 (ip), vehicle: Klucel (hydroxypropylcellulose) (HPC) 100 % of control and 105 % of control | dose: 32.0 mg/kg/injection, schedule: Q01DX009 (ip), vehicle: Klucel (hydroxypropylcellulose) (HPC) 102 % of control and 105 % of control | dose: 64.0 mg/kg/injection, schedule: Q01DX009 (ip), vehicle: Klucel (hydroxypropylcellulose) (HPC) 108 % of control and 112 % of control

O=[N+]([O-])c1ncccc1NCCN1CCCC1
inactive: dose: 12.5 mg/kg/injection, schedule: Q01DX009 (ip), vehicle: saline 104 % of control | dose: 25.0 mg/kg/injection, schedule: Q01DX009 (ip), vehicle: saline 100 % of control | dose: 50.0 mg/kg/injection, schedule: Q01DX009 (ip), vehicle: saline 106 % of control and 108 % of control

O=P(O)(O)CCCNO
inactive: dose: 60.0 mg/kg/injection, schedule: Q01DX005 (ip), vehicle: saline 95 % of control | dose: 120.0 mg/kg/injection, schedule: Q01DX005 (ip), vehicle: saline 91 % of control | dose: 240.0 mg/kg/injection, schedule: Q01DX005 (ip), vehicle: saline 90 % of control

O=c1[nH]c(=O)c2nc(-c3ccccn3)cnc2[nH]1
inactive: dose: 50.0 mg/kg/injection, schedule: Q01DX001 (ip), vehicle: saline 101 % of control | dose: 100.0 mg/kg/injection, schedule: Q01DX001 (ip), vehicle: saline 90 % of control | dose: 200.0 mg/kg/injection, schedule: Q01DX001 (ip), vehicle: saline 92 % of control

CN1CSC(=S)NCCNC(=S)SC1
inactive: [1] 87 % of control | [5] 94 % of control | [6] 87 % of control

Nc1c(Cl)cc(Cl)c(-c2c(Cl)cc(Cl)c([N+](=O)[O-])c2Cl)c1Cl
inactive: [2] 103 % of control | [3] 93 % of control | [4] 100 % of control

NC(CP(=O)(O)O)C(=O)O (stereo not drawn)
inactive: dose: 50.0 mg/kg/injection, schedule: Q01DX005 (ip), vehicle: saline 106 % of control | dose: 100.0 mg/kg/injection, schedule: Q01DX005 (ip), vehicle: saline 101 % of control | dose: 200.0 mg/kg/injection, schedule: Q01DX005 (ip), vehicle: saline 91 % of control

N#CCc1cccc2c(=O)cc(-c3ccccc3)oc12
inactive: [1] 106 % of control | [5] 96 % of control | [6] 87 % of control
